Ends that are not written are not given here. Peptide text beside a SMILES is read from it.
Columns and labels:
CRF2R = molecular target: T1, CRF2R (Homo sapiens, UniProt Q13324); assay: CRF2R agonist activity (EC50, Emax), called comparative CRF binding; format: cell-based; details: read-out: CRF2R EC50
T1 sequence (Q13324 1-411): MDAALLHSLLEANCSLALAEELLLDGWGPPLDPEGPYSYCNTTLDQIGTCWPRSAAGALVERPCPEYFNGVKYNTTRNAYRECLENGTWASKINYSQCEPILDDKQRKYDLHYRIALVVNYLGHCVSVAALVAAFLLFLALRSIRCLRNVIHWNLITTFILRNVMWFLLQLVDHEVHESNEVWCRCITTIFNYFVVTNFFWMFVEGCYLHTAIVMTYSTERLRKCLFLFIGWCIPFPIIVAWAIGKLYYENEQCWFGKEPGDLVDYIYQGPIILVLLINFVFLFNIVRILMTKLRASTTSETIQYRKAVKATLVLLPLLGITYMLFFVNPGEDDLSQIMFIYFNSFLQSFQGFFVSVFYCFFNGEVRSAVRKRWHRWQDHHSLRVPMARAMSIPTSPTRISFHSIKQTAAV
Outline: (§1)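 cAMP read-out: CRE-linked reporter (e.g. luciferase, CAT, GFP) or lysate cAMP in CRF1R- or CRF2R-expressing cells after peptide exposure; vehicle control comparison. Signal from any non-target CRFR subtracted.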

CRF1R = molecular target: T2, CRF1R (Homo sapiens, UniProt P34998); assay: CRF1R agonist activity (EC50, Emax), called comparative CRF binding; format: cell-based; details: read-out: CRF1R EC50
T2 sequence (P34998 24-415): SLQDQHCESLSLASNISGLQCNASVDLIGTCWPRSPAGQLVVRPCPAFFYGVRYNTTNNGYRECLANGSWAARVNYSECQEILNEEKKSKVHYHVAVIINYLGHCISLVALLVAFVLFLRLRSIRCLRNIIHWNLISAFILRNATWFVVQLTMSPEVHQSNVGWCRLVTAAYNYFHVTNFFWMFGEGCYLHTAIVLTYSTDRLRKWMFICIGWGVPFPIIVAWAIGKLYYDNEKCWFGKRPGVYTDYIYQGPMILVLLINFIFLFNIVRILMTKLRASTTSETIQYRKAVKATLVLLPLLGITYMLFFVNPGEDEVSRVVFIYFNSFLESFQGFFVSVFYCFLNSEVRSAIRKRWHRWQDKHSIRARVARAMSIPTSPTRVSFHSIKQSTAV
Outline: as §1

| Compound | EC50 (CRF2R) | EC50 (CRF1R) |
| --- | --- | --- |
| CC[C@H](C)[C@H](NC(=O)[C@H](C)NC(=O)[C@H](CC(N)=O)NC(=O)[C@H](CCC(N)=O)NC(=O)[C@H](CCC(=O)O)NC(=O)[C@H](C)NC(=O)[C@H](CCCNC(=N)N)NC(=O)[C@H](CCC(=O)O)NC(=O)[C@H](CCCNC(=N)N)NC(=O)[C@H](CCC(N)=O)NC(=O)[C@H](CO)NC(=O)[C@H](CCC(N)=O)NC(=O)[C@@H](NC(=O)[C@H](CCCNC(=N)N)NC(=O)[C@H](C)NC(=O)[C@H](CC(C)C)NC(=O)[C@H](CCC(=O)O)NC(=O)[C@H](CC(C)C)NC(=O)[C@H](CC(C)C)NC(=O)[C@@H](NC(=O)[C@H](CCCNC(=N)N)NC(=O)[C@H](CC(C)C)NC(=O)[C@H](CC(C)C)NC(=O)[C@@H](NC(=O)[C@H](Cc1ccccc1)NC(=O)[C@@H]1CCCN1C(=O)[C@H](CC(C)C)NC(=O)[C@H](CC(=O)O)NC(=O)[C@@H](NC(=O)[C@H](CO)NC(=O)[C@H](CC(C)C)NC(=O)[C@H](CO)NC(=O)[C@@H]1CCCN1C(=O)[C@H](CC(N)=O)NC(=O)[C@@H](N)CC(=O)O)[C@@H](C)CC)[C@@H](C)CC)[C@@H](C)O)[C@@H](C)O)C(=O)N[C@H](C(=O)N[C@@H](Cc1ccccc1)C(=O)N[C@@H](C)C(=O)N[C@@H](CO)C(=O)N[C@H](C(N)=O)C(C)C)[C@@H](C)CC [compound 181] (H-DNPSLSIDLPFILLRTLLELARTQSQRERAEQNAIIFASV-NH2; N-terminus assumed) | 5.22 nM | 154 nM |
| CC[C@H](C)[C@H](N)C(=O)N[C@H](C(=O)N[C@@H](CC(C)C)C(=O)N[C@@H](CO)C(=O)N[C@@H](CC(C)C)C(=O)N[C@@H](CC(=O)O)C(=O)N[C@H](C(=O)N1CCC[C@H]1C(=O)N[C@H](C(=O)NCC(=O)N[C@@H](CC(C)C)C(=O)N[C@@H](CC(C)C)C(=O)N[C@@H](CCC(N)=O)C(=O)N[C@H](C(=O)N[C@@H](CC(C)C)C(=O)N[C@@H](CC(C)C)C(=O)N[C@@H](CCC(=O)O)C(=O)N[C@@H](CCC(N)=O)C(=O)N[C@@H](CCCNC(=N)N)C(=O)N[C@@H](C)C(=O)N[C@@H](CCCNC(=N)N)C(=O)N[C@@H](C)C(=O)N[C@@H](C)C(=O)N[C@@H](CCCNC(=N)N)C(=O)N[C@@H](CCC(=O)O)C(=O)N[C@@H](CCC(N)=O)C(=O)N[C@@H](C)C(=O)N[C@H](C(=O)N[C@H](C(=O)N[C@@H](CC(N)=O)C(=O)N[C@@H](C)C(=O)N[C@@H](CCCNC(=N)N)C(=O)N[C@H](C(=O)N[C@@H](CC(C)C)C(=O)N[C@@H](C)C(=O)N[C@@H](CCCNC(=N)N)C(=O)N[C@H](C(N)=O)C(C)C)[C@@H](C)CC)[C@@H](C)O)[C@@H](C)O)[C@@H](C)CC)[C@@H](C)CC)C(C)C)C(C)C [compound 137] (H-IVLSLDVPIGLLQILLEQRARAAREQATTNARILARV-NH2; N-terminus assumed) | 36.9 nM | > 100 nM |
| NDDPPISIDLPFFLLRNMIEMARIENEREQAGLNAKYLAEV-NH2 [compound 264] | ≥ 100 nM | 704 nM |
| CC[C@H](C)[C@H](NC(=O)[C@H](C)NC(=O)[C@H](CC(N)=O)NC(=O)[C@H](CCC(N)=O)NC(=O)[C@H](CCC(=O)O)NC(=O)[C@H](C)NC(=O)[C@H](CCCNC(=N)N)NC(=O)[C@H](CCC(=O)O)NC(=O)[C@H](CCCNC(=N)N)NC(=O)[C@H](CCC(N)=O)NC(=O)[C@H](CO)NC(=O)[C@H](CCC(N)=O)NC(=O)[C@@H](NC(=O)[C@H](CCCNC(=N)N)NC(=O)[C@H](C)NC(=O)[C@H](CC(C)C)NC(=O)[C@H](CCC(=O)O)NC(=O)[C@H](CC(C)C)NC(=O)[C@H](CC(C)C)NC(=O)[C@@H](NC(=O)[C@H](CCCNC(=N)N)NC(=O)[C@H](CC(C)C)NC(=O)[C@H](CC(C)C)NC(=O)[C@H](Cc1ccc(O)cc1)NC(=O)[C@H](CC(C)C)NC(=O)[C@@H]1CCCN1C(=O)[C@H](CC(C)C)NC(=O)[C@H](CC(=O)O)NC(=O)[C@@H](NC(=O)[C@H](CO)NC(=O)[C@H](CC(C)C)NC(=O)[C@H](CO)NC(=O)[C@@H]1CCCN1C(=O)[C@H](CC(N)=O)NC(=O)[C@@H](N)CC(=O)O)[C@@H](C)CC)[C@@H](C)O)[C@@H](C)O)C(=O)N[C@H](C(=O)N[C@@H](Cc1ccccc1)C(=O)N[C@@H](C)C(=O)N[C@@H](CO)C(=O)N[C@H](C(N)=O)C(C)C)[C@@H](C)CC [compound 177] (H-DNPSLSIDLPLYLLRTLLELARTQSQRERAEQNAIIFASV-NH2; N-terminus assumed) | 5.63 nM | 613 nM |
| CC[C@H](C)[C@H](NC(=O)[C@H](C)NC(=O)[C@H](CC(N)=O)NC(=O)[C@H](CCC(N)=O)NC(=O)[C@H](CCC(=O)O)NC(=O)[C@H](C)NC(=O)[C@H](CCCNC(=N)N)NC(=O)[C@H](CCC(=O)O)NC(=O)[C@H](CCCNC(=N)N)NC(=O)[C@H](CCC(N)=O)NC(=O)[C@H](CO)NC(=O)[C@H](CCC(N)=O)NC(=O)[C@@H](NC(=O)[C@H](CCCNC(=N)N)NC(=O)[C@H](C)NC(=O)[C@H](CC(C)C)NC(=O)[C@H](CCC(=O)O)NC(=O)[C@H](CC(C)C)NC(=O)[C@H](CC(C)C)NC(=O)[C@@H](NC(=O)[C@H](CCCNC(=N)N)NC(=O)[C@H](CC(C)C)NC(=O)[C@H](CC(C)C)NC(=O)[C@H](Cc1c[nH]cn1)NC(=O)[C@H](CC(C)C)NC(=O)[C@@H]1CCCN1C(=O)[C@H](CC(C)C)NC(=O)[C@H](CC(=O)O)NC(=O)[C@@H](NC(=O)[C@H](CO)NC(=O)[C@H](CC(C)C)NC(=O)[C@H](CO)NC(=O)[C@@H]1CCCN1C(=O)[C@H](CC(N)=O)NC(=O)[C@@H](N)CC(=O)O)[C@@H](C)CC)[C@@H](C)O)[C@@H](C)O)C(=O)N[C@H](C(=O)N[C@@H](Cc1ccccc1)C(=O)N[C@@H](C)C(=O)N[C@@H](CO)C(=O)N[C@H](C(N)=O)C(C)C)[C@@H](C)CC [compound 179] (H-DNPSLSIDLPLHLLRTLLELARTQSQRERAEQNAIIFASV-NH2; N-terminus assumed) | 10.2 nM | 477 nM |
| CC[C@H](C)[C@H](N)C(=O)N[C@H](C(=O)N[C@@H](CC(C)C)C(=O)N[C@@H](CO)C(=O)N[C@@H](CC(C)C)C(=O)N[C@@H](CC(=O)O)C(=O)N[C@H](C(=O)N1CCC[C@H]1C(=O)N[C@H](C(=O)NCC(=O)N[C@@H](CC(C)C)C(=O)N[C@@H](CC(C)C)C(=O)N[C@@H](CCC(N)=O)C(=O)N[C@H](C(=O)N[C@@H](CC(C)C)C(=O)N[C@@H](CC(C)C)C(=O)N[C@@H](CCC(=O)O)C(=O)N[C@@H](CCC(N)=O)C(=O)N[C@@H](C)C(=O)N[C@@H](CCCNC(=N)N)C(=O)N[C@@H](C)C(=O)N[C@@H](CCC(=O)O)C(=O)N[C@@H](C)C(=O)N[C@@H](C)C(=O)N[C@@H](CCCNC(=N)N)C(=O)N[C@@H](CCC(=O)O)C(=O)N[C@@H](CCC(N)=O)C(=O)N[C@@H](C)C(=O)N[C@H](C(=O)N[C@H](C(=O)N[C@@H](CC(N)=O)C(=O)N[C@@H](C)C(=O)N[C@@H](CCCNC(=N)N)C(=O)N[C@H](C(=O)N[C@@H](CC(C)C)C(=O)N[C@@H](C)C(=O)N[C@@H](CCCNC(=N)N)C(=O)N[C@H](C(N)=O)C(C)C)[C@@H](C)CC)[C@@H](C)O)[C@@H](C)O)[C@@H](C)CC)[C@@H](C)CC)C(C)C)C(C)C [compound 122] (H-IVLSLDVPIGLLQILLEQARAEAAREQATTNARILARV-NH2; N-terminus assumed) | 3.31 nM | ≥ 1000 nM |
| CC[C@H](C)[C@H](NC(=O)[C@H](CCCNC(=N)N)NC(=O)[C@H](C)NC(=O)[C@H](CC(N)=O)NC(=O)[C@H](CCC(N)=O)NC(=O)[C@H](CCC(=O)O)NC(=O)[C@H](C)NC(=O)[C@H](CCCNC(=N)N)NC(=O)[C@H](CCC(=O)O)NC(=O)[C@H](CCCNC(=N)N)NC(=O)[C@H](CCC(N)=O)NC(=O)[C@H](CO)NC(=O)[C@H](CCC(N)=O)NC(=O)[C@@H](NC(=O)[C@H](CCCCN)NC(=O)[C@H](CCC(=O)O)NC(=O)[C@H](CC(C)C)NC(=O)[C@H](CCC(=O)O)NC(=O)[C@H](CC(C)C)NC(=O)[C@H](CC(C)C)NC(=O)[C@@H](NC(=O)[C@H](CCCNC(=N)N)NC(=O)[C@H](CC(C)C)NC(=O)[C@H](CC(C)C)NC(=O)[C@H](Cc1ccccc1)NC(=O)[C@H](CC(C)C)NC(=O)[C@@H]1CCCN1C(=O)[C@H](CC(C)C)NC(=O)[C@H](CC(=O)O)NC(=O)[C@@H](NC(=O)[C@H](CO)NC(=O)[C@H](CC(C)C)NC(=O)[C@H](CO)NC(=O)[C@@H]1CCCN1C(=O)[C@H](CC(N)=O)NC(=O)[C@@H](N)CC(=O)O)[C@@H](C)CC)[C@@H](C)O)[C@@H](C)O)C(=O)N[C@@H](Cc1ccccc1)C(=O)N[C@@H](CC(=O)O)C(=O)N[C@@H](CCCNC(=N)N)C(=O)N[C@H](C(N)=O)C(C)C [compound 336] (H-DNPSLSIDLPLFLLRTLLELEKTQSQRERAEQNARIFDRV-NH2; N-terminus assumed) | 17.8 nM | ≥ 1000 nM |

Source: patent US7192924B2, “Corticotropin releasing factor 2 receptor agonists” (priority 2002, dated 2007)
